According to patent US20070093520A1, “Method of treatment of diarrhea-predominant irritable bowel syndrome in a subject” (priority 2005, published 2007):

System: diarrhea-predominant IBS subjects
Assay: 3007 Study: open-label 52-week safety study, adverse events and withdrawals
[1] = Cilansetron 2 mg/Cilansetron 2 mg
[2] = Cilansetron 2 mg/Cilansetron 2 mg, N=257
[3] = Cilansetron 2 mg/Cilansetron 2 mg, N=257, % of appropriate gender
[4] = Cilansetron 2 mg/Cilansetron 2 mg, gender-specific

Cc1nccn1C[C@H]1CCc2c(c3cccc4c3n2CCC4)C1=O [cilansetron, (R)-(−)-4,5,6,8,9,10-hexahydro-10-[(2-methyl-1H-imidazol-1-yl)methyl]-11H-pyrido-[3,2,1-jk]-carbazol-11-one]
35 (7%) n (%): TEAE: Abdominal Pain NOS (Overall)
7 (1%) n (%): TEAE: Aspartate Aminotransferase Increased (Overall)
11 (2%) n (%): TEAE: Abdominal Pain Upper (Overall)
6 (1%) n (%): TEAE: Arthropathies NEC (Overall)
3 (<1%) n (%): TEAE: Allergic Conditions NEC (Overall) | TEAE: Angina Pectoris (Overall) | TEAE: Anxiety Aggravated (Overall) | TEAE: Apocrine and Eccrine Gland Disorders (Overall) | TEAE: Arthritis NOS (Overall)
3 (1%) n (%): TEAE: Urine Ketone Body Present [1] | TEAE: Urine Leukocyte Esterase Positive [1] | TEAE: Vascular Tests NEC (Incl Blood Pressure) [1] | TEAE leading to permanent discontinuation: Back Pain [2] | TEAE leading to permanent discontinuation: Fatigue [2] | TEAE leading to permanent discontinuation: General Disorders and Administration Site Conditions [2] | TEAE leading to permanent discontinuation: Nausea [2]
33 (13%) n (%): Total Number of Subjects with at Least One TEAE Leading to Discontinuation of Study Medication [2]
7 (3%) n (%): TEAE: Viral Infections NEC [1] | TEAE leading to permanent discontinuation: Constipation [2]
9 (4%) n (%): TEAE: Vomiting NOS [1]
8 (1%) n (%): TEAE: Anxiety (Overall)
16 (6%) n (%): TEAE: Urinary Tract Infection NOS [1]
2 (1%) n (%): TEAE: Female Reproductive Tract Infections* [4]
4 (<1%) n (%): TEAE: Abdominal Pain Aggravated (Overall) | TEAE: Anal and Rectal Pains (Overall) | TEAE: Anal and Rectal Signs and Symptoms (Overall)
5 (2%) n (%): TEAE leading to permanent discontinuation: Abdominal Pain NOS [2] | TEAE leading to permanent discontinuation: Investigations [2] | TEAE leading to permanent discontinuation: Musculoskeletal and Connective Tissue Disorders [2]
4 (2%) n (%): TEAE: White Blood Cell Analyses [1] | TEAE leading to permanent discontinuation: Diarrhoea NOS [2] | TEAE leading to permanent discontinuation: Nervous System Disorders [2]
42 (16%) n (%): TEAE: Upper Respiratory Tract Infections - Pathogen Class Unspecified [1]
18 (7%) n (%): TEAE: Upper Respiratory Tract Infection NOS [1]
1 (<1%) n (%): TEAE: Urine Analysis Abnormal NOS [1] | TEAE: Urobilin Urine Present [1] | TEAE: Vasovagal Attack [1] | TEAE: Weight Decreased [1] | TEAE: White Blood Cell Count Decreased [1] | TEAE: White Blood Cells Urine Positive [1] | TEAE leading to permanent discontinuation: Abdominal Pain Aggravated [2] | TEAE leading to permanent discontinuation: Abdominal Pain Upper [2] | TEAE leading to permanent discontinuation: Alanine Aminotransferase Increased [2] | TEAE leading to permanent discontinuation: Angina Pectoris [2] | TEAE leading to permanent discontinuation: Appendicitis [2] | TEAE leading to permanent discontinuation: Asthma Aggravated [2] | TEAE leading to permanent discontinuation: Asthma NOS [2] | TEAE leading to permanent discontinuation: Blood Bilirubin Increased [2] | TEAE leading to permanent discontinuation: Blood Pressure Increased [2] | TEAE leading to permanent discontinuation: Blood Urine Present [2] | TEAE leading to permanent discontinuation: Bone Neoplasm Malignant [2] | TEAE leading to permanent discontinuation: Cardiac Disorders [2] | TEAE leading to permanent discontinuation: Dehydration [2] | TEAE leading to permanent discontinuation: Diarrhoea Aggravated [2] | TEAE leading to permanent discontinuation: Dyspepsia [2] | TEAE leading to permanent discontinuation: Ear and Labyrinth Disorders [2] | TEAE leading to permanent discontinuation: Eructation [2] | TEAE leading to permanent discontinuation: Faecal Abnormality NOS [2] | TEAE leading to permanent discontinuation: Faeces Hard [2] | TEAE leading to permanent discontinuation: Gastric Irritation [2] | TEAE leading to permanent discontinuation: Headache NOS [2] | TEAE leading to permanent discontinuation: Headache NOS Aggravated [2] | TEAE leading to permanent discontinuation: Heart Rate Increased [2] | TEAE leading to permanent discontinuation: Hepatobiliary Disorders [2] | TEAE leading to permanent discontinuation: Hepatosplenomegaly NOS [2] | TEAE leading to permanent discontinuation: Hiatus Hernia [2] | TEAE leading to permanent discontinuation: Irritable Bowel Syndrome Aggravated [2] | TEAE leading to permanent discontinuation: Metabolism and Nutrition Disorders [2] | TEAE leading to permanent discontinuation: Migraine NOS [2] | TEAE leading to permanent discontinuation: Pregnancy, Puerperium and Perinatal Conditions [2] | TEAE leading to permanent discontinuation: Pruritus NOS [2] | TEAE leading to permanent discontinuation: Skin and Subcutaneous Tissue Disorders [2] | TEAE leading to permanent discontinuation: Somnolence [2] | TEAE leading to permanent discontinuation: Vertigo [2] | TEAE leading to permanent discontinuation: Vomiting NOS [2] | TEAE leading to permanent discontinuation: White Blood Cells Urine Positive [2] | TEAE leading to permanent discontinuation: Ovarian Cancer NOS* [3] | TEAE leading to permanent discontinuation: Pregnancy NOS* [3] | TEAE: Smear Cervix Abnormal* [4] | TEAE: Vaginal Candidiasis* [4] | TEAE: Vaginitis Bacterial NOS* [4] | TEAE: Vaginitis* [4] | TEAE: Vaginosis Fungal NOS* [4] | TEAE: Abdominal Discomfort (Overall) | TEAE: Abdominal Rebound Tenderness (Overall) | TEAE: Abdominal Therapeutic Procedures NEC (Overall) | TEAE: Abdominoplasty (Overall) | TEAE: Abnormal Chest Sounds NOS (Overall) | TEAE: Abnormal Reflexes (Overall) | TEAE: Acne NOS (Overall) | TEAE: Acnes (Overall) | TEAE: Acrochordons (Overall) | TEAE: Adenomyosis* (Overall) | TEAE: Age Related Issues (Overall) | TEAE: Allergy to Insect Sting (Overall) | TEAE: Alopecia (Overall) | TEAE: Alopecias (Overall) | TEAE: Amenorrhoea NOS* (Overall) | TEAE: Anaemia NOS (Overall) | TEAE: Anaemias NEC (Overall) | TEAE: Anal and Rectal Disorders NEC (Overall) | TEAE: Animal Bite (Overall) | TEAE: Appendicitis (Overall) | TEAE: Arrhythmia NOS (Overall) | TEAE: Arthritis NOS Aggravated (Overall) | TEAE: Arthropod Sting (Overall) | TEAE: Asthma Aggravated (Overall)
24 (9%) n (%): TEAE leading to permanent discontinuation: Gastrointestinal Disorders [2]
15 (3%) n (%): TEAE: Abdominal Distension (Overall) | TEAE: Asthenic Conditions (Overall)
10 (2%) n (%): TEAE: Abdominal Pain Lower (Overall)
14 (3%) n (%): TEAE: Alanine Aminotransferase Increased (Overall)
10 (4%) n (%): TEAE: Urinalysis NEC [1]
17 (7%) n (%): TEAE: Urinary Tract Infections [1]
2 (<1%) n (%): TEAE: Viral Infection NOS [1] | TEAE leading to permanent discontinuation: Abdominal Distension [2] | TEAE leading to permanent discontinuation: Flatulence [2] | TEAE leading to permanent discontinuation: Muscle Cramps [2] | TEAE leading to permanent discontinuation: Neoplasms Benign, Malignant and Unspecified (Incl Cysts and Polyps) [2] | TEAE leading to permanent discontinuation: Rectal Haemorrhage [2] | TEAE leading to permanent discontinuation: Respiratory, Thoracic and Mediastinal Disorders [2] | TEAE: Acquired Hypothyroidism (Overall) | TEAE: Allergies to Foods, Food Additives, Drugs and Other Chemicals (Overall) | TEAE: Anorexia (Overall) | TEAE: Appetite Disorders (Overall) | TEAE: Arthropod Bite (Overall) | TEAE: Asthma NOS (Overall)
6 (2%) n (%): TEAE: Weight Increased [1]
1 (1%) n (%): TEAE: Prostate Examination Abnormal* [4]
12 (2%) n (%): TEAE: Anxiety Symptoms (Overall)
13 (2%) n (%): TEAE: Abdominal Tenderness (Overall) | TEAE: Arthralgia (Overall)
0 n (%): TEAE: Upper Limb Fractures and Dislocations [1] | TEAE: Urine Bilirubin Increased [1] | TEAE: Vascular Auscultatory Investigations [1] | TEAE leading to permanent discontinuation: Abdominal Pain Lower [2] | TEAE leading to permanent discontinuation: Bladder Prolapse [2] | TEAE leading to permanent discontinuation: Chest Discomfort [2] | TEAE leading to permanent discontinuation: Chest Pain [2] | TEAE leading to permanent discontinuation: Chest Wall Pain [2] | TEAE leading to permanent discontinuation: Colitis Ischaemic [2] | TEAE leading to permanent discontinuation: Cough [2] | TEAE leading to permanent discontinuation: Depression [2] | TEAE leading to permanent discontinuation: Diarrhoea Haemorrhagic [2] | TEAE leading to permanent discontinuation: Dizziness [2] | TEAE leading to permanent discontinuation: Epigastric Discomfort [2] | TEAE leading to permanent discontinuation: Eye Disorders [2] | TEAE leading to permanent discontinuation: Faecal Impaction [2] | TEAE leading to permanent discontinuation: Faecal Incontinence [2] | TEAE leading to permanent discontinuation: Fibroma NOS [2] | TEAE leading to permanent discontinuation: Gastrointestinal Motility Disorder NOS [2] | TEAE leading to permanent discontinuation: Haemorrhoidal Haemorrhage [2] | TEAE leading to permanent discontinuation: Hallucination NOS [2] | TEAE leading to permanent discontinuation: Hallucination, Auditory [2] | TEAE leading to permanent discontinuation: Lethargy [2] | TEAE leading to permanent discontinuation: Psychiatric Disorders [2] | TEAE leading to permanent discontinuation: Psychotic Disorder NOS [2] | TEAE leading to permanent discontinuation: Rash Macular [2] | TEAE leading to permanent discontinuation: Rash NOS [2] | TEAE leading to permanent discontinuation: Rectal Disorder NOS [2] | TEAE leading to permanent discontinuation: Rectal Tenesmus [2] | TEAE leading to permanent discontinuation: Renal and Urinary Disorders [2] | TEAE leading to permanent discontinuation: Stomach Discomfort [2] | TEAE leading to permanent discontinuation: Suicidal Ideation [2] | TEAE leading to permanent discontinuation: Urticaria NOS [2] | TEAE leading to permanent discontinuation: Visual Acuity Reduced [2] | TEAE leading to permanent discontinuation: Benign Ovarian Tumour* [3] | TEAE leading to permanent discontinuation: Breast Cancer NOS* [3] | TEAE leading to permanent discontinuation: Ovarian Cystadenofibroma* [3]
